Assay results as given in patent US8486996B2, “Aroylfuranes and aroylthiophenes” (Basilea Pharmaceutica AG, priority 2006, dated 2013).
Like-named read-outs stand apart in the source and are kept apart here.

Key:
Assay type in all cases: cell-based
tumor cells [1] = assay: Hoechst 33342 nuclear staining (48 h read-out)
Summary of the method: (§1)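 Adherent cells pre-spread 24 h before dosing, suspension cells dosed at seeding; compounds at 0.001 μM-10 μM final, 48 h at culture conditions. Hoechst 33342 (2-5 μg/ml) added for 30 min, then fluorescence microscopy scoring of apoptotic nuclear fraction and apoptosis-specific morphology, reported as scores A-D.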

[2] = Hoechst 33342 nuclear staining (48 h read-out)
Summary of the method: as §1

tumor cells [3] = assay: Mitochondrial membrane potential, JC-1 (read-out 48 h); details: JC-1, 48 h
Summary of the method: (§2)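 Tumor cells were treated with test compounds (adherent cells after 24 h of attachment, suspension cells immediately), medium holding up to 5% DMSO. After 48 h, JC-1 (2-5 μg/ml in added medium) was applied for 30 min. Fluorescence microscopy (FITC/TRITC filters) scored the fraction of cells with dissipated mitochondrial membrane potential as categories A-D.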

[4] = as above; details: PBL, JC-1, 48 h
Summary of the method: as §2

tumor cells [5] = assay: MTS proliferation assay (72 h read-out)
Summary of the method: (§3)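 Tumour cells (1.5×10^3–10^4 per well) were seeded 24 h before compound addition, then exposed to 0.001–10 μM final compound for 72 h under culture conditions. MTS reagent was added for a further 3 h, absorbance was read at 492 nm, and results were binned into scores A–D.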

[6] = MTS proliferation assay (72 h read-out); details: MRC5 cells
Summary of the method: as §3

[7] = HeLa cells, read-out: Hoechst 33342 nuclear staining EC50, HeLa
[8] = Jily cells, read-out: Hoechst 33342 nuclear staining EC50, Jily
[9] = Jurkat cells, read-out: Hoechst 33342 nuclear staining EC50, Jurkat
[10] = MRC5 cells, read-out: Hoechst 33342 nuclear staining EC50, MRC5
[11] = PBL, read-out: Hoechst 33342 nuclear staining EC50, PBL
[12] = HeLa cells, read-out: Mitochondrial membrane potential (read-out 48 h) HeLa
[13] = Jily cells, read-out: Mitochondrial membrane potential (read-out 48 h) Jily
[14] = Jurkat cells, read-out: Mitochondrial membrane potential (read-out 48 h) Jurkat
[15] = MCF7 cells, read-out: Mitochondrial membrane potential (read-out 48 h) MCF7
[16] = HT1080 cells, read-out: MTS proliferation assay IC50, HT1080
[17] = HeLa cells, read-out: MTS proliferation assay IC50, HeLa
[18] = Jily cells, read-out: MTS proliferation assay IC50, Jily
[19] = Jurkat cells, read-out: MTS proliferation assay IC50, Jurkat

SMILES	EC50 (tumor cells [1]; [7]) [nM]	EC50 (tumor cells [1]; [8]) [nM]	EC50 (tumor cells [1]; [9]) [nM]	EC50 [2, 10] [nM]	EC50 [2, 11] [nM]	EC50 (tumor cells [3]; [12]) [nM]	EC50 (tumor cells [3]; [13]) [nM]	EC50 (tumor cells [3]; [14]) [nM]	EC50 (tumor cells [3]; [15]) [nM]	EC50 [4] [nM]	IC50 (tumor cells [5]; [16]) [nM]	IC50 (tumor cells [5]; [17]) [nM]	IC50 (tumor cells [5]; [18]) [nM]	IC50 (tumor cells [5]; [19]) [nM]	IC50 [6] [nM]
CCOc1ccc(F)cc1C(=O)c1cc2cc(OCc3ccccc3)ccc2o1 [Example 63]	> 1000	> 1000	> 1000	> 1000	> 1000	> 1000	> 1000	> 1000	> 1000	> 1000	> 1000	> 1000	> 1000	> 1000	> 1000
O=C(c1cc2cc(OCc3ccccc3)ccc2o1)c1cc(F)ccc1N1CCOCC1 [Example 106]	> 1000	> 1000	> 1000	> 1000	> 1000	> 1000	> 1000	> 1000	> 1000	> 1000	> 1000	> 1000	> 1000	> 1000	> 1000
Nc1c(C(=O)c2cccnc2N2CCC(O)CC2)oc2ccc(Cl)cc12 [Example 86]	> 1000	> 1000	> 1000	> 1000	> 1000	> 1000	> 1000	> 1000	> 1000	> 1000	> 1000	> 1000	100 to 1000	100 to 1000	> 1000
COc1ccc(OC)c(C(=O)c2oc3ccc(Cl)cc3c2O)c1 [Ref C, reference compound]	> 1000	> 1000	> 1000	> 1000	> 1000	> 1000	> 1000	> 1000	> 1000	> 1000	> 1000	> 1000	> 1000	> 1000	> 1000
Nc1c(C(=O)c2cccnc2N2CCCC2)oc2ccc(Cl)cc12 [Example 79]	> 1000	> 1000	100 to 1000	> 1000	> 1000	> 1000	100 to 1000	100 to 1000	> 1000	> 1000	100 to 1000	100 to 1000	100 to 1000	100 to 1000	> 1000
CCOc1ccc(F)cc1C(=O)c1cc2cc(OC(C)C)ccc2o1 [Example 68]	100 to 1000	100 to 1000	100 to 1000	100 to 1000	> 1000	> 1000	100 to 1000	100 to 1000	> 1000	> 1000	10 to 100	10 to 100	10 to 100	–	10 to 100
CCNc1ncccc1C(=O)c1oc2ccc(Cl)cc2c1N [Example 76]	> 1000	> 1000	> 1000	> 1000	> 1000	> 1000	> 1000	> 1000	> 1000	> 1000	> 1000	> 1000	> 1000	–	> 1000
CCN(CC)c1ncccc1C(=O)c1oc2ccc(Cl)cc2c1N [Example 81]	100 to 1000	100 to 1000	100 to 1000	> 1000	> 1000	> 1000	100 to 1000	10 to 100	> 1000	> 1000	10 to 100	100 to 1000	100 to 1000	10 to 100	100 to 1000
Nc1c(C(=O)c2cc(F)ccc2N2CCCCC2)oc2ccc(Cl)cc12 [Example 101]	100 to 1000	100 to 1000	10 to 100	100 to 1000	> 1000	100 to 1000	10 to 100	10 to 100	100 to 1000	> 1000	10 to 100	100 to 1000	100 to 1000	10 to 100	100 to 1000
CCOc1ccccc1C(=O)c1oc2ccc(F)cc2c1N [Example 45]	> 1000	> 1000	> 1000	> 1000	> 1000	> 1000	> 1000	> 1000	> 1000	> 1000	> 1000	> 1000	> 1000	> 1000	> 1000
COc1ccc2oc(C(=O)c3cc(F)ccc3-n3ccnc3)cc2c1 [Example 105]	> 1000	> 1000	> 1000	> 1000	> 1000	> 1000	> 1000	> 1000	> 1000	> 1000	> 1000	> 1000	> 1000	> 1000	> 1000
CCOc1ccc(F)cc1C(=O)c1cc2cc(OCCOC)ccc2o1 [Example 70]	100 to 1000	100 to 1000	100 to 1000	100 to 1000	> 1000	> 1000	100 to 1000	100 to 1000	> 1000	> 1000	100 to 1000	100 to 1000	100 to 1000	–	100 to 1000
Nc1c(C(=O)c2cc(F)ccc2N2CCCCC2)oc2ccc(Cl)cc12 [Example 100]	100 to 1000	100 to 1000	10 to 100	100 to 1000	> 1000	100 to 1000	10 to 100	10 to 100	100 to 1000	> 1000	10 to 100	100 to 1000	10 to 100	10 to 100	10 to 100
CCOc1ccc(F)cc1C(=O)c1cc2cc(OCOC)ccc2o1 [Example 69]	100 to 1000	100 to 1000	100 to 1000	> 1000	> 1000	> 1000	100 to 1000	100 to 1000	> 1000	> 1000	100 to 1000	100 to 1000	100 to 1000	–	100 to 1000
CCOc1ccccc1C(=O)c1oc2ccc(N)cc2c1N [Example 52]	> 1000	100 to 1000	100 to 1000	> 1000	> 1000	> 1000	100 to 1000	100 to 1000	> 1000	> 1000	> 1000	> 1000	100 to 1000	–	> 1000
CCOc1ccc(F)cc1C(=O)c1cc2cc(CN(CC)CC)ccc2o1 [Example 74]	> 1000	> 1000	> 1000	> 1000	> 1000	> 1000	> 1000	> 1000	> 1000	> 1000	> 1000	> 1000	> 1000	–	> 1000
